What was measured:
[1] = target: Tyrosine-protein kinase JAK1 (Homo sapiens, UniProt P23458); experiment: Selectivity interaction (KinomeScan (DiscoverX)) EUB0000092b JAK1; conditions: at 10 µM
[2] = target: Ephrin type-A receptor 7 (Homo sapiens) (UniProt Q15375); experiment: Selectivity interaction (KinomeScan (DiscoverX)) EUB0000655a EPHA7; conditions: at 10 µM
Activated CDC42 kinase 1 = Activated CDC42 kinase 1 (Homo sapiens, UniProt Q07912); experiment: Selectivity interaction (ProQinase) EUB0000171b TNK2
[3] = target: Serine/threonine-protein kinase PAK 2 (Homo sapiens) (UniProt Q13177); experiment: Selectivity interaction (KinomeScan (DiscoverX)) EUB0001079a PAK2; conditions: at 1 µM
[4] = target: ATPase family AAA domain-containing protein 2 (Homo sapiens) (UniProt Q6PL18); experiment: Selectivity interaction (Human bromodomain panel (DSF assay)) EUB0000233b ATAD2
[5] = target: Tyrosine-protein kinase SYK (Homo sapiens, UniProt P43405); experiment: Selectivity interaction (KinaseProfiler screening (Millipore)) EUB0000601a SYK; conditions: at 3 µM
[6] = target: Tyrosine-protein kinase Fyn (Homo sapiens) (UniProt P06241); conditions: at 10 µM
[7] = target: T1, Bromodomain and PHD finger-containing protein 3 (Homo sapiens) (UniProt Q9ULD4); experiment: Selectivity interaction (Bromodomain panel (DSF asssay)) EUB0000270b BRPF3
T1 sequence (whole entry): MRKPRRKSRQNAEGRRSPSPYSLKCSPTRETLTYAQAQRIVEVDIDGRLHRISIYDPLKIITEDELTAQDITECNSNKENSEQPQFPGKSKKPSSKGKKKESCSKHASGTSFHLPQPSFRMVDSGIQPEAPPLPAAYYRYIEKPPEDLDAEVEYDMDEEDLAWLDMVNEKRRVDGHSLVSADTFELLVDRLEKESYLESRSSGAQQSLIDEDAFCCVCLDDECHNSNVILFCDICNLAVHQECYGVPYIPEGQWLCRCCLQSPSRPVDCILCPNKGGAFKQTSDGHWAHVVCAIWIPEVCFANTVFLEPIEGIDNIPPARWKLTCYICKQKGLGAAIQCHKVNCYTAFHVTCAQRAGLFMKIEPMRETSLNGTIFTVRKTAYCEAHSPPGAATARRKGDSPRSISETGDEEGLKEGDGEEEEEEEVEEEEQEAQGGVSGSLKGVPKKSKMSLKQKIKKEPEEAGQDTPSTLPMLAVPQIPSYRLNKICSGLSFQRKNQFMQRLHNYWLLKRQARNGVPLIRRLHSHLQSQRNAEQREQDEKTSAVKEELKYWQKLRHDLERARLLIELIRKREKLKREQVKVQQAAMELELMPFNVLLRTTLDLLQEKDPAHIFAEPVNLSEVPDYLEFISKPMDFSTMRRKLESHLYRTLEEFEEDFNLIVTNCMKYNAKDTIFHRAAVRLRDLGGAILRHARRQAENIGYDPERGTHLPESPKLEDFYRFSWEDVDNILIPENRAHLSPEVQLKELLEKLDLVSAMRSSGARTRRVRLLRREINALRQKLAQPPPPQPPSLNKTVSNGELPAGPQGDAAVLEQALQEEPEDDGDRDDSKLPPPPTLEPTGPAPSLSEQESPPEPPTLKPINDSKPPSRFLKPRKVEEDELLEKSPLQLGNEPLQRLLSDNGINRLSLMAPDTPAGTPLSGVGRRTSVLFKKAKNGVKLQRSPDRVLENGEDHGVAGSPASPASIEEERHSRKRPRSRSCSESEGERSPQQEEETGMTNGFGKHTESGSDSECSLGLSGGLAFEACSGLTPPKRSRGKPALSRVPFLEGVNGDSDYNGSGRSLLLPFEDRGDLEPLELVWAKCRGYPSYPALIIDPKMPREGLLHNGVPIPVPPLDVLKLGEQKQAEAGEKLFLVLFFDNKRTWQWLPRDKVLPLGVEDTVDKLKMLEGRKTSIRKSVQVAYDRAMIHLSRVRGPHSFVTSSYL

[8] = target: DNA-dependent protein kinase catalytic subunit (Homo sapiens) (UniProt P78527); experiment: Selectivity interaction (ActivX KiNativ screen (kinase selectivity in THP-1 cell lysates)) EUB0000639a PRKDC; format: subcellular; conditions: lysate, at 5 µM
[9] = target: Mitogen-activated protein kinase kinase kinase 9 (Homo sapiens) (UniProt P80192); experiment: Selectivity interaction (KinomeScan (DiscoverX)) EUB0001049a MAP3K9; conditions: at 1 µM
[10] = target: Tyrosine-protein kinase Fes/Fps (Homo sapiens) (UniProt P07332); experiment: Selectivity interaction (KinomeScan (DiscoverX)) EUB0001049a FES; conditions: at 1 µM
[11] = target: Vascular endothelial growth factor receptor 2 (Homo sapiens, UniProt P35968); experiment: Selectivity interaction (KinomeScan (DiscoverX)) EUB0001049a KDR; conditions: at 1 µM
[12] = target: Calcium/calmodulin-dependent protein kinase type II subunit beta (Homo sapiens) (UniProt Q13554); experiment: Selectivity interaction (KinomeScan (DiscoverX)) EUB0000595a CAMK2B; conditions: at 10 µM
Histamine H3 receptor = Histamine H3 receptor (Homo sapiens, UniProt Q9Y5N1); experiment: Selectivity interaction (Eurofins CEREP Diversity Profile (receptors and ion channels)) EUB0000279b HRH3; conditions: at 10 µM
[13] = target: Serine/threonine-protein kinase 38 (Homo sapiens) (UniProt Q15208); experiment: Selectivity interaction (ActivX KiNativ screen (ex vivo kinase selectivity in human PBMCs)) EUB0001619a STK38; format: cell-based; conditions: PBMC, at 1 µM
[14] = target: T2, Tyrosine-protein kinase TXK (Homo sapiens) (UniProt P42681); experiment: Selectivity interaction (KinomeScan (DiscoverX)) EUB0001619a TXK; conditions: at 1 µM
T2 sequence (whole entry): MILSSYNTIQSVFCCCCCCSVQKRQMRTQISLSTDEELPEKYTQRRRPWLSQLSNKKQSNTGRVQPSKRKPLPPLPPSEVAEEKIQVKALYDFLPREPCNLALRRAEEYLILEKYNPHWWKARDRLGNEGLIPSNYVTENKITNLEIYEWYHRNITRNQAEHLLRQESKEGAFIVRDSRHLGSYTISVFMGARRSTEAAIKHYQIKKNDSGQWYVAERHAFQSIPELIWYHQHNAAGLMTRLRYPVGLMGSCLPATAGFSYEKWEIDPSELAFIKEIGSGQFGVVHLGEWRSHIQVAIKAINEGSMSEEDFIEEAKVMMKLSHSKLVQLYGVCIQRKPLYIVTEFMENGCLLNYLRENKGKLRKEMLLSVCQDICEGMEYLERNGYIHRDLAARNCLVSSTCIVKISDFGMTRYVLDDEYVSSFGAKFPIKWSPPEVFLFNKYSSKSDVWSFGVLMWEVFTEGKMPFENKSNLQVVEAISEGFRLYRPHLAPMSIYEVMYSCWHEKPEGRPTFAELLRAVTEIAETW

Sequence of Activated CDC42 kinase 1 (Q07912 whole entry, looked up): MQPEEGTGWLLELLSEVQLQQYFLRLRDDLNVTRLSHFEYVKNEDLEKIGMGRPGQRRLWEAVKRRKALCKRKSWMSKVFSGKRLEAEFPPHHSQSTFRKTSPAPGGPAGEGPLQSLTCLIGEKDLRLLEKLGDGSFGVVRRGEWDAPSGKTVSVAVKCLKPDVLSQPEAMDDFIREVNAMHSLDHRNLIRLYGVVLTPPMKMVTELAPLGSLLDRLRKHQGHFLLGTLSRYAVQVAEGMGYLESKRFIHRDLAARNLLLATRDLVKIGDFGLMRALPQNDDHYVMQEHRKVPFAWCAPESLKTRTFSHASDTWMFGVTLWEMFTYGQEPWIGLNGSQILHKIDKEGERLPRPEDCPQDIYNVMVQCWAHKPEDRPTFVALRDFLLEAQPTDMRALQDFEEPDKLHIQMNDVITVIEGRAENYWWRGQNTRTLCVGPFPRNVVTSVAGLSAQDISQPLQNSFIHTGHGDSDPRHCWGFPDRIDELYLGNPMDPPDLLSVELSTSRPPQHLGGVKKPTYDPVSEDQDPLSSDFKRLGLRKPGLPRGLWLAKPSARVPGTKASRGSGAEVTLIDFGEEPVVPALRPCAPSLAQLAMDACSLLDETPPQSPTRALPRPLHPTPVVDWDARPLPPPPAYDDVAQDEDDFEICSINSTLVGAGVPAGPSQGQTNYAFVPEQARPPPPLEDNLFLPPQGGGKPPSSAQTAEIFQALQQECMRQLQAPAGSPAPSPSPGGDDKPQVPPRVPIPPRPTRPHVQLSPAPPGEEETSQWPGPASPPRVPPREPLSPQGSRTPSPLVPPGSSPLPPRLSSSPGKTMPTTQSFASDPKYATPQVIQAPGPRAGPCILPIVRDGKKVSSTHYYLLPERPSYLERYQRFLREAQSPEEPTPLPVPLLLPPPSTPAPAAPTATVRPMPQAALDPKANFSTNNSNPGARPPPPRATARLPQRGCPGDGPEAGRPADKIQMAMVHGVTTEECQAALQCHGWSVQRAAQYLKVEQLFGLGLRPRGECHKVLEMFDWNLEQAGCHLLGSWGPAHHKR
Sequence of Vascular endothelial growth factor receptor 2 (P35968 whole entry): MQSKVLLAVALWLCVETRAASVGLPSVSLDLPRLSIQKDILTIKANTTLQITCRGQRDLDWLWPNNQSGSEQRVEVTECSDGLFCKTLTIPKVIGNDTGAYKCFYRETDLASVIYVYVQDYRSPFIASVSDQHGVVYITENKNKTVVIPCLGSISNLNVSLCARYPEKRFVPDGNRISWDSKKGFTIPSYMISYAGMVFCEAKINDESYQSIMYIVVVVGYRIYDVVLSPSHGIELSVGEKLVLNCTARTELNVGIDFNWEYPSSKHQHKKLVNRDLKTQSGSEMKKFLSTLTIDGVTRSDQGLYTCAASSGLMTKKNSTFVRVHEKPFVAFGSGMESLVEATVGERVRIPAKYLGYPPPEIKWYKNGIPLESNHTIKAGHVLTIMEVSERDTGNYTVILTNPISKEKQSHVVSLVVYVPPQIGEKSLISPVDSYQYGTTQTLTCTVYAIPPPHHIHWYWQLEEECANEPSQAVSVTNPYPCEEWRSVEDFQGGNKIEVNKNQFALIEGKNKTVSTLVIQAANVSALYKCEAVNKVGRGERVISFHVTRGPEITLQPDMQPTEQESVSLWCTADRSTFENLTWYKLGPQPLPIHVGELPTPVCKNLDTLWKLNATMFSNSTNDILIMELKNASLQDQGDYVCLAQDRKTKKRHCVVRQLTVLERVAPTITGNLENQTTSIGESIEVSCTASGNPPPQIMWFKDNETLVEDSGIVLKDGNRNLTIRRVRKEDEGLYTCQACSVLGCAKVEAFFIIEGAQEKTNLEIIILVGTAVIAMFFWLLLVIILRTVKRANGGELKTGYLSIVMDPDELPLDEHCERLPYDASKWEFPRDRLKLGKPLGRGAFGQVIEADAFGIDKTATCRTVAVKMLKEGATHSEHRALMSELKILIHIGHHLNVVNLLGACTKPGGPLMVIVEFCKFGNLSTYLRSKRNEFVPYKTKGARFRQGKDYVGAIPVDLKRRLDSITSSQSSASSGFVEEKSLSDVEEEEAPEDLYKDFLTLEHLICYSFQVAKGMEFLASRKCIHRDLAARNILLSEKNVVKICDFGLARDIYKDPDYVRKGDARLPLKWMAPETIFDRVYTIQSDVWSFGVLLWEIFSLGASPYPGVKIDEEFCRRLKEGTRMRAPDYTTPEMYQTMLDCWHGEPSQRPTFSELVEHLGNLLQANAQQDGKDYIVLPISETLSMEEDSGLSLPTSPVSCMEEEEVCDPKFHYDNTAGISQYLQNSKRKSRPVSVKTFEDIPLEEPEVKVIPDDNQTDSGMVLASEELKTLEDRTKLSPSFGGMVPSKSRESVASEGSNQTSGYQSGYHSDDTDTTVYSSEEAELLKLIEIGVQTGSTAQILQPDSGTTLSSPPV
Sequence of Tyrosine-protein kinase JAK1 (P23458 whole entry): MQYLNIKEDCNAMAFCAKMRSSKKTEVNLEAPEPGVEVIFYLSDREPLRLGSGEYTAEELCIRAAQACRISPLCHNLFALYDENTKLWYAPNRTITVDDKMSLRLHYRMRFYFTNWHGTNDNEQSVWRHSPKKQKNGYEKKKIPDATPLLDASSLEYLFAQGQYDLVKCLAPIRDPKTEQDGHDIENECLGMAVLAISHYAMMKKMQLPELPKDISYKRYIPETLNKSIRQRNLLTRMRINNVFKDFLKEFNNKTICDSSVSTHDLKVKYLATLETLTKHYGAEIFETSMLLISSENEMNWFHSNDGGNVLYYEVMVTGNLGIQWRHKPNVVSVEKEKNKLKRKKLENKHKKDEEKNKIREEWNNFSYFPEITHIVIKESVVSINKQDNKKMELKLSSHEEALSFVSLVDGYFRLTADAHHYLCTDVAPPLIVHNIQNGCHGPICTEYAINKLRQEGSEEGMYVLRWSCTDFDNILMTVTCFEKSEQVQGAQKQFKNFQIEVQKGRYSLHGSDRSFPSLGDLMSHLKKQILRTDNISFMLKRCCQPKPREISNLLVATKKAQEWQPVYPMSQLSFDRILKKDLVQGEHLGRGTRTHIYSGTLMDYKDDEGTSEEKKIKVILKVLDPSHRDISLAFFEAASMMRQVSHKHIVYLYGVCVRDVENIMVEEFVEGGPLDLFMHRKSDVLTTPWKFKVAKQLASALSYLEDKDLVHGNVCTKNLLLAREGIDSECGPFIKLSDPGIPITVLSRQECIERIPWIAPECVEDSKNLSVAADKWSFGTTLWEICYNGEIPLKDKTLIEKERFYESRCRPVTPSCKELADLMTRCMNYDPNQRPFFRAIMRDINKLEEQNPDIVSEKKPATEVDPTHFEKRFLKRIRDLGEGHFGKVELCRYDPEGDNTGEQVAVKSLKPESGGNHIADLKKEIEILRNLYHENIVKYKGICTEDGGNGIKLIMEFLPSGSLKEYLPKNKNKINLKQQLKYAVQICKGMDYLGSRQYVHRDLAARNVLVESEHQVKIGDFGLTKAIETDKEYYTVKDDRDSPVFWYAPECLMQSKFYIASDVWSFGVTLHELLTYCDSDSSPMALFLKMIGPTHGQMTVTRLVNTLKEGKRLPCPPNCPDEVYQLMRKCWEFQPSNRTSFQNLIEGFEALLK
Sequence of Tyrosine-protein kinase Fyn (Homo sapiens) (P06241 2-537 limits assumed): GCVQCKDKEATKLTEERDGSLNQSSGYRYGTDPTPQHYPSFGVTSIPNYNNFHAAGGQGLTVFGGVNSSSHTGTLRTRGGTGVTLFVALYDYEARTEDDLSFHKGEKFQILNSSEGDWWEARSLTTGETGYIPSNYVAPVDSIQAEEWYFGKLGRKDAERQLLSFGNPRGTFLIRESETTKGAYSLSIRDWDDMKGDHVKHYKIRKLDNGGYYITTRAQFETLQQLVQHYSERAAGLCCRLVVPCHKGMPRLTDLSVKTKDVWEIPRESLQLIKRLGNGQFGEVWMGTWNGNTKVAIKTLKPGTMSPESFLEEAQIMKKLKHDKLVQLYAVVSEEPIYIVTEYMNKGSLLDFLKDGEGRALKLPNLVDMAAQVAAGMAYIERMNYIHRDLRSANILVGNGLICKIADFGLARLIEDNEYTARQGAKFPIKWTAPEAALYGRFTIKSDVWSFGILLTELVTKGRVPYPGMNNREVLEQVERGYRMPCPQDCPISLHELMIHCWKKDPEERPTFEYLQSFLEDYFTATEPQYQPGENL
Sequence of Histamine H3 receptor (Q9Y5N1 whole entry): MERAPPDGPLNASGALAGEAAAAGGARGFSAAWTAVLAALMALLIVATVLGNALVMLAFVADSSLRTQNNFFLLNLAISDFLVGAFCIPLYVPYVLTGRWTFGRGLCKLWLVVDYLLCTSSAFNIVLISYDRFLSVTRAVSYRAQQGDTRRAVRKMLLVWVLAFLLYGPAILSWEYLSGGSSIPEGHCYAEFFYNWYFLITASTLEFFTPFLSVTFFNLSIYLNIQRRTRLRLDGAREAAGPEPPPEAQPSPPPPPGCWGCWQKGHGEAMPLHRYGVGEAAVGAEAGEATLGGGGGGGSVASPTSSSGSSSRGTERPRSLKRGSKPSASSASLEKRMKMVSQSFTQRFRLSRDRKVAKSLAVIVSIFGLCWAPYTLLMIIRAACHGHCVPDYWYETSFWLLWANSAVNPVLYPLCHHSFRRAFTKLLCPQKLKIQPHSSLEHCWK
Sequence of Serine/threonine-protein kinase 38 (Homo sapiens) (Q15208 2-465 limits assumed): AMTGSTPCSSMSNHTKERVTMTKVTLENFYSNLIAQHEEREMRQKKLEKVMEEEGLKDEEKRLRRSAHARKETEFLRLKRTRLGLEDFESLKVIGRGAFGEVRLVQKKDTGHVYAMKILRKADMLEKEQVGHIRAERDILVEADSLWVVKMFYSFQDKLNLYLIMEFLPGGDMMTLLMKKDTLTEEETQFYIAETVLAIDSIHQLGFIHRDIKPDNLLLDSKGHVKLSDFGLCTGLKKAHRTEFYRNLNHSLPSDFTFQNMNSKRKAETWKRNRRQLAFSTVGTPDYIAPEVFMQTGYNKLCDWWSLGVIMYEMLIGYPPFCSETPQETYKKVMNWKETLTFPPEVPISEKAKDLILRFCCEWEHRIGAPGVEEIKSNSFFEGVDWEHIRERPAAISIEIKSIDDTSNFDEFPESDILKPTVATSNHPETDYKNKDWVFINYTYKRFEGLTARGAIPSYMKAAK

CCC(=O)N1CCN(c2ccc(-n3c(=O)ccc4cnc5ccc(-c6cnc7ccccc7c6)cc5c43)cc2C(F)(F)F)CC1
% of control [1]: 82%

CN(C)CCOc1ccc(-c2nc(-c3ccncc3)c(-c3ccc4c(c3)CC/C4=N\O)[nH]2)cc1
% of control [2]: 100%

C=CC(=O)Nc1cccc(C(=O)Nc2ccc(Nc3cc(-c4[nH]c(SC)nc4C)ccn3)cc2)c1
% of control (Activated CDC42 kinase 1; at 1 µM): 100%
% of control (Activated CDC42 kinase 1; at 5 µM): 95%

Nc1cnc(N2CCc3cc(S(=O)(=O)Nc4c(F)cc(Cl)cc4F)cc(N4CCCC4=O)c32)nc1 [TP-020n]
% of control [3]: 78%

CN(C)CCCOc1ccc(-c2cc(NCCCn3cccn3)nc(S(C)(=O)=O)n2)cc1
dTM [4]: < 2 K

CCc1cc(Nc2nccc(-c3c(-c4ccc(OC)c(C(=O)Nc5c(F)cccc5F)c4)nc4ccccn34)n2)c(OC)cc1N1CCC(N2CCN(S(C)(=O)=O)CC2)CC1
% of inhibition [5]: 50%

Cc1cc([C@@H](C)Nc2ccccc2C(=O)O)c2nc(N3CCOCC3)cc(=O)n2c1 [AZD-6482]
% of control [6]: 100%

Cc1cc(CN)cc(C)c1-c1ncn(C)c1-c1cncn1C
dTM [7]: -2.18 K

CC[C@@H]1[C@H](F)C(=O)N[C@@H]1COc1nccc2cc(C(N)=O)c(OC)cc12 [ZIMLOVISERTIB]
% of inhibition [8]: -11.7%

COc1cc(Nc2nc(C)cc(-c3cnn4nc(OC)ccc34)n2)cc(C(F)(F)F)c1
% of control [9]: 96%
% of control [10]: 95%
% of control [11]: 95%

COCC(=O)NC/C=C/c1ccc2ncnc(Nc3ccc(Oc4ccc(C)nc4)c(C)c3)c2c1 [CP-724714]
% of control [12]: 88%

CC(=O)c1cc(-c2ccccc2OCC2CC2)c2ncccn12
% of control (Histamine H3 receptor): 105%

N#Cc1cccc(-c2c[nH]c3ncnc(N4CCOCC4)c23)c1
% of inhibition [13]: 2%
% of control [14]: 100%

— ChEMBL document CHEMBL5465560, “Selectivity Literature for EUbOPEN Chemogenomic Library” (2024)
